In patent publication US20240308996A1, “PYRIDOPYRIDINES AND DERIVATIVES THEREOF AS SELECTIVE KINASE INHIBITORS” (University of Sharjah, priority 2023, published 2024):

What was measured:
[1] = molecular target: PDGFRα (Homo sapiens, UniProt P16234); test: Kinase IC50, PDGFRα
[2] = molecular target: Flt4 (Homo sapiens, UniProt P35916); test: Kinase IC50, Flt4
[3] = molecular target: Flt3 (Homo sapiens, UniProt P36888); test: Kinase IC50, Flt3
[4] = molecular target: TrkA (Homo sapiens, UniProt P04629); test: Kinase IC50, TrkA
TrkA, sequence (P04629 33-796): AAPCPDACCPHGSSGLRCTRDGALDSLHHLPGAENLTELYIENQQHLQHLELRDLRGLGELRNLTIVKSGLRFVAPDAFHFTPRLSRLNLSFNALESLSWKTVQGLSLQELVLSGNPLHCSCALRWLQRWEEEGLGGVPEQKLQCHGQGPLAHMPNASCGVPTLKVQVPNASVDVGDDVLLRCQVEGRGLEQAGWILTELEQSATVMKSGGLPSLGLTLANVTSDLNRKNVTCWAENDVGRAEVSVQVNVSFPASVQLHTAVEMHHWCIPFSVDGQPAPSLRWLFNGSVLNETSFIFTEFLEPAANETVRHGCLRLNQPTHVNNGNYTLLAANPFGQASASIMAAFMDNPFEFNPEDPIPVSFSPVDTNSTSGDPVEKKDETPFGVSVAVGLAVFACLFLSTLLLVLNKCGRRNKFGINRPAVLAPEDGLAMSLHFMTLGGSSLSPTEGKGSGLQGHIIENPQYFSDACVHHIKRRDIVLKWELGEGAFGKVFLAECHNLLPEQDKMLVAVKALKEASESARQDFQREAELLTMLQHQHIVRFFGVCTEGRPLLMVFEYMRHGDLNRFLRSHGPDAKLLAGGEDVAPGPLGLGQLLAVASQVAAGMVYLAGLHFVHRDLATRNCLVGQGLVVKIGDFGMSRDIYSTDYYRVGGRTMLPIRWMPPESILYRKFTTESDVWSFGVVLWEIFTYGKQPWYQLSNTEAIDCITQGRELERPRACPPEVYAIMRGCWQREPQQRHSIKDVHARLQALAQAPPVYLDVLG

Flt3, sequence (P36888 27-993): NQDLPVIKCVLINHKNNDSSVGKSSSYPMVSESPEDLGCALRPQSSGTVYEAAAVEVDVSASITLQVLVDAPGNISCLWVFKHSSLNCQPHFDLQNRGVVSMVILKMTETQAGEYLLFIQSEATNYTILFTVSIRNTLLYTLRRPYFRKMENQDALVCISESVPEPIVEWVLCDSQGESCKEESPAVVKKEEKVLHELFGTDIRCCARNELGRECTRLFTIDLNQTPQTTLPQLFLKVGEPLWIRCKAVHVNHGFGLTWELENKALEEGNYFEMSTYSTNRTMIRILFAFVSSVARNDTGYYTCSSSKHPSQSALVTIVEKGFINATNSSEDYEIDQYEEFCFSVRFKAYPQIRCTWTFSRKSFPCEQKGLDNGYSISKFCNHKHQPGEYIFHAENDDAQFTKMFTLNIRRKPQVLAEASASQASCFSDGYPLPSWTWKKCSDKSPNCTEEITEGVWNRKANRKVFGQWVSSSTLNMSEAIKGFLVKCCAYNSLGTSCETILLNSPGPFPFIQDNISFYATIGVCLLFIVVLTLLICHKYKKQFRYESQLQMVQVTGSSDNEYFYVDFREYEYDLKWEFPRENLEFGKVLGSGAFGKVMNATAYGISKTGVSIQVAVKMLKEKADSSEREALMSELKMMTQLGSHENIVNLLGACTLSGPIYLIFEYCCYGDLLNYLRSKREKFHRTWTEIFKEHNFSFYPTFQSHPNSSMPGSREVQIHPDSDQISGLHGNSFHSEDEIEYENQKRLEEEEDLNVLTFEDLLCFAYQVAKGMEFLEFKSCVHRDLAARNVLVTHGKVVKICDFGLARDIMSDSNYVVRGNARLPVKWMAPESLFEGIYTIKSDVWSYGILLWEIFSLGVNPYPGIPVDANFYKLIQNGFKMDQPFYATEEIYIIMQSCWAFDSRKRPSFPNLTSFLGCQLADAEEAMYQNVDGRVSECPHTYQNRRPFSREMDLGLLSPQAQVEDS
PDGFRα, sequence (P16234 24-1089): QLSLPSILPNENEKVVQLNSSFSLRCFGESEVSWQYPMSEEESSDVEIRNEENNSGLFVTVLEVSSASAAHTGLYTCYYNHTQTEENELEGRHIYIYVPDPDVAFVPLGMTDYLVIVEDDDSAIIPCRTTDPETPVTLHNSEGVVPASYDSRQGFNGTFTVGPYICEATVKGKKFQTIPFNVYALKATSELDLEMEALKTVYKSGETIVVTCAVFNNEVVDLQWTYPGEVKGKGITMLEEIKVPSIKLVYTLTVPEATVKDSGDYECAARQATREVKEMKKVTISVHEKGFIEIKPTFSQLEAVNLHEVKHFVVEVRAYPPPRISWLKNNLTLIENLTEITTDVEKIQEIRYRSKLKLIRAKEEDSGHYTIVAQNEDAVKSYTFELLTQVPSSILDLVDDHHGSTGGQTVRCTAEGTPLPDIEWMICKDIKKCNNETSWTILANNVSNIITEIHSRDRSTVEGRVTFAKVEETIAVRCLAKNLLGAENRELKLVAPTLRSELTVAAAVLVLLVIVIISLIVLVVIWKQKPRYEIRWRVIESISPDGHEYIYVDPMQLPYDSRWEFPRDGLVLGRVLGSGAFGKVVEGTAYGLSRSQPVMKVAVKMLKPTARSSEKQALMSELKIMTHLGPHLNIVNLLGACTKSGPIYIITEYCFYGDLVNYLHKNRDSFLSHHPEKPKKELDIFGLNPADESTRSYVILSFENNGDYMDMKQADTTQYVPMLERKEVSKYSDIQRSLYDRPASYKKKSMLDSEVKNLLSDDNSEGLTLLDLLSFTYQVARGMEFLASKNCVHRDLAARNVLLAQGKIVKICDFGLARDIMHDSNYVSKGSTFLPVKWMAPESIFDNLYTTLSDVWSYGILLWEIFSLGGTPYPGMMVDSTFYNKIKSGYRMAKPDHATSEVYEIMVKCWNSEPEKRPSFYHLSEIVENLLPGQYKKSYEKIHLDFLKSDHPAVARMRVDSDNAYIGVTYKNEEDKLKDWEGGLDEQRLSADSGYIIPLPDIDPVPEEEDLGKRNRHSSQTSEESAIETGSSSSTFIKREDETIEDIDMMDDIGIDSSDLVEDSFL
Flt4, sequence (P35916 25-1363): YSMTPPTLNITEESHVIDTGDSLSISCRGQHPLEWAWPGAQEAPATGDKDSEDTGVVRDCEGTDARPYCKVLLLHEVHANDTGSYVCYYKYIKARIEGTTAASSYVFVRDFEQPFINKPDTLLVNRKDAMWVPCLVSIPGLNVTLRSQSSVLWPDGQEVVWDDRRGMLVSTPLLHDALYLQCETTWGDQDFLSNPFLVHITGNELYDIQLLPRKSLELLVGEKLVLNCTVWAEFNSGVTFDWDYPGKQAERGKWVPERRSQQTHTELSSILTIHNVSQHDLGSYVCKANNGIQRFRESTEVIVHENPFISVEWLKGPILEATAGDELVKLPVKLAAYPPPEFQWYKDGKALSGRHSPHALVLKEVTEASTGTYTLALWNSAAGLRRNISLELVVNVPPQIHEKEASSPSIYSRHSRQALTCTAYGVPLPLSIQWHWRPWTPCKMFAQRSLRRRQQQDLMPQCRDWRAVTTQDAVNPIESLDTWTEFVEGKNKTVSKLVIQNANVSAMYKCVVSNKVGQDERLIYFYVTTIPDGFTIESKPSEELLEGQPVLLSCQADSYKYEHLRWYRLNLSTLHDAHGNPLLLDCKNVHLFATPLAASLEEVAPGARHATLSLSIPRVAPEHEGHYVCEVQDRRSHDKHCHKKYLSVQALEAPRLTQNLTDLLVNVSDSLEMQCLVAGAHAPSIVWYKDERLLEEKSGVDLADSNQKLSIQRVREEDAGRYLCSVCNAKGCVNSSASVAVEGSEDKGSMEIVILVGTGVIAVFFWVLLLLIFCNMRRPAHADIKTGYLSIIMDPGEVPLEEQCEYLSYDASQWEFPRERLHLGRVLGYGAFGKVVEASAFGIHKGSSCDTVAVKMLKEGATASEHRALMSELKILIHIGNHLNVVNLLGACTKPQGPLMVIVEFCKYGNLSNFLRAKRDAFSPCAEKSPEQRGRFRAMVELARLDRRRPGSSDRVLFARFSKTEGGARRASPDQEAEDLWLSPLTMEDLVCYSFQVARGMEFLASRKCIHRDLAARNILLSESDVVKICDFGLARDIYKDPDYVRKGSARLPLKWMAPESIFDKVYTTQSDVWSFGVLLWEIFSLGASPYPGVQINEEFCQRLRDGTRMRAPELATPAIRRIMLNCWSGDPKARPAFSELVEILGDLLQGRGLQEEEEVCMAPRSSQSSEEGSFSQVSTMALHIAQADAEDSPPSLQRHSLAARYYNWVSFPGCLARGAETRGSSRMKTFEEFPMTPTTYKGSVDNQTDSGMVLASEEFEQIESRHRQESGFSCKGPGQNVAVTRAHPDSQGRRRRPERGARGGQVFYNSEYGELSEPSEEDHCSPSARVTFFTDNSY

Row | SMILES | IC50 [1] | IC50 [2] | IC50 [3] | IC50 [4]
1 | CCN1CCN(c2ccc(NC(=O)Nc3ccc(-c4cc(C(=O)NC)c5ncccc5n4)cc3)cc2C(F)(F)F)CC1 [Compound 13c, 2-(4-(3-(4-(4-Ethylpiperazin-1-yl)-3-(trifluoromethyl)phenyl)ureido)phenyl)-N-methyl-1,5-naphthyridine-4-carboxamide] | 992.3 ± 0.6 nM | 945.1 ± 0.5 nM | 483.6 ± 0.7 nM | 958 nM
2 | CNC(=O)c1cc(-c2ccc(NC(=O)Nc3ccc(N4CCN(C)CC4)c(C(F)(F)F)c3)cc2)nc2cccnc12 [Compound 13b, N-Methyl-2-(4-(3-(4-(4-methylpiperazin-1-yl)-3-(trifluoromethyl)phenyl)ureido)phenyl)-1,5-naphthyridine-4-carboxamide] | 972.4 ± 1.3 nM | 366.3 ± 0.5 nM | 362 ± 0.4 nM | 
